Among the data in PubChem BioAssay (NCI) are TGI and GI50 values, retold here.

Several values for one entry are separate records, joined by “and”; a condition that tells them apart may be missing. Identical values can stand only once.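 Results reflect a 48-hour exposure of cells in 96-well plates to compound at five concentrations. At the GI50, growth is halved. TGI is the concentration that stops growth completely.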 Where only a bound is given, the exact number is not on record here.

Common to all, as to test: NCI-60 cell line screen, 48 h
The subject of test [1] is HCT-116 colon.
Test [2] deals with OVCAR-3 ovarian.
In test [3] the test system is SF-539 CNS.
Test [4] concerns SK-MEL-5 melanoma.
Test [5] has as its system SW-620 colon.
Test [6] has as its system TK-10 renal.
Test [7] concerns UACC-62 melanoma.
For test [8], the system named is UO-31 renal.
Test [9] concerns CAKI-1 renal.
Test [10] deals with NCI-H23 lung.

For the compound `CC(C)CCc1c(Cl)nc(Cl)nc1Cl`, the TGI in [1] was 9.3 µM; in [2] it was 24.3 µM; in [3], 56.5 µM; in test [4], 16.4 µM; in test [5], greater than 100 µM; in test [6] it was 35.5 µM. Further, the TGI in test [7] is 24.7 µM; in test [8], 35.3 µM.
Regarding `COC(=O)[C@@]1(O)C[C@H]2O[C@]1(C)n1c3ccccc3c3c4c(c5c6ccccc6n2c5c31)C(=O)NC4`, the GI50 in test [9] was 0.0149 µM; in test [1] it was 0.102 µM; in test [10] it was 0.212 µM; in [2], 0.587 µM; in [3], 0.356 µM; in test [5], 0.147 µM. In addition, the GI50 in [6] was 0.0284 µM; in [7], 0.132 µM; in [8], 0.0256 µM. Further, the TGI in [9] was found to be 0.217 µM; in test [1], 2.24 µM; in test [10], 2.36 µM; in [2] it was 3.22 µM; in test [3] it was 1.42 µM; in test [5] it was 3.11 µM. The TGI is 1.39 µM in test [6], 1.55 µM in test [7] and 1.37 µM in test [8].
With `O=C(/C=C/c1ccc(C(F)(F)F)cc1)c1ccc(Nc2nc(NCCO)nc(N3CCOCC3)n2)cc1`, the GI50 in test [9] is 2.54 µM; in test [1], 1.43 µM; in test [10] it was 2.55 µM; in [2], 1.96 µM; in test [3], 1.64 µM; in test [4], 3.16 µM. Also, the GI50 in test [5] is 1.92 µM; in test [7] it was 2.76 µM; in [8], 1.31 µM. The TGI in [9] is 15.6 µM; in test [1], 2.74 µM; in test [10], 6.97 µM; in [2], 3.79 µM; in test [3] it was 3.06 µM; in test [4], 10.2 µM. The TGI in test [5] came to 4.05 µM; in [7] it was 8.87 µM; in test [8], 2.58 µM.
`COc1ccccc1/C=N/N=C(\N)NO`: the TGI in [9] is greater than 100 µM; in test [1], greater than 100 µM; in test [10] it was greater than 100 µM; in [2] it was greater than 100 µM; in [3] it was 9.4 µM; in test [4] it was 25.6 µM. The TGI in test [5] was greater than 100 µM; in test [7], 33.7 µM; in [8], greater than 100 µM.
In the case of `Cc1cccc2c1C/C(=C1\CCc3c(C)cccc31)C2=O`, the TGI in [9], in test [1], in [10], in test [2], in test [4] and in test [5] was greater than 100 µM each time. The TGI in test [6], in test [7] and in test [8] was greater than 100 µM throughout.
Take `Cn1c(=O)c(C(=O)NC(=O)OCc2ccccc2)cn(CCSCCOC(=O)NCCCCCCNC(=O)OCCSCCn2cc(C(=O)NC(=O)OCc3ccccc3)c(=O)n(C)c2=O)c1=O`: the TGI in [1], in test [10], in test [3], in test [4], in [5] and in test [6] was greater than 100 µM each time. The TGI in [7] and in [8] was greater than 100 µM in each case.
For `O=C(N/C(=C\c1ccc(Oc2ccc(Cl)c(Cl)c2)cc1)c1nc2ccccc2[nH]1)c1ccccc1`, the TGI is 47.9 µM in test [9]; 27.7 µM in test [10]; 41 µM in test [2]; 32.7 µM in test [3]; 30.4 µM in [4]; 33.7 µM in [5]. For the same compound, the TGI in test [6] worked out at 57.7 µM; in test [7], 33.5 µM; in [8], 27.6 µM.
As for `CC1=Nn2c(nnc2-c2ccc(N)cc2)NC(C)(C)C1`, the TGI in [9], in test [10], in test [2], in test [3], in test [4] and in test [5] was greater than 100 µM each time. In addition, the TGI in [6], in [7] and in test [8] was greater than 100 µM each time.
Regarding `CC(=O)c1c[nH]cc1CO`, the TGI in test [9], in [1], in [10], in [2], in test [3] and in [4] was greater than 10 µM in each case. Moreover, the TGI in test [5], in test [6] and in test [8] was greater than 10 µM in each case.
Consider `COc1cccc2c(=O)c3c(sc12)c(NCCN(C)C)nc1ccccc13`, for which the GI50 in test [9] was 1.36 µM; in [1] it was 0.538 µM; in [10], 1.51 µM; in [2], 1.61 µM; in [3], 1.61 µM; in test [4], 1.71 µM. For the same compound, the GI50 was 0.76 µM in test [5], 1.72 µM in test [7] and 0.461 µM in test [8]. Also, the TGI stood at 3.12 µM in test [9]; 1.85 µM in test [1]; 3.16 µM in test [10]; 3.22 µM in test [2]; 3.01 µM in [3]; 3.17 µM in [4]. Besides, the TGI in [5] stood at 2.3 µM; in test [7], 3.24 µM; in [8], 2 µM.
With `CCOC(=O)C#Cc1c(CC(=O)OCC)nnn1[C@H]1O[C@@H](CO)[C@@H]2OC(C)(C)O[C@@H]21`, the GI50 is 1.71 µM in test [9]; 2.06 µM in [1]; 13.6 µM in [10]; 1.75 µM in test [2]; 15 µM in [4]; 1.88 µM in [5]. In addition, the GI50 in test [6] was 1.76 µM; in [7], 1.84 µM; in test [8] it was 2.82 µM. In addition, the TGI in test [9] came to 3.15 µM; in [1] it was 4.1 µM; in [10], 30.5 µM; in test [2] it was 3.22 µM; in test [4], 28.4 µM; in [5], 3.78 µM. In addition, the figures for the TGI in test [6], in test [7] and in [8] were 3.39 µM, 4.14 µM and 10.3 µM, respectively.
In the case of `Clc1nc(Cl)c(Cc2ccccc2)c(Cl)n1`, the TGI in test [1] is 4.73 µM; in [10], 37.5 µM; in test [2] it was 9.16 µM; in test [3], 20 µM; in [4], 8.39 µM; in [5] it was greater than 100 µM. Further, the TGI turned out to be 32.2 µM in test [6], 16.9 µM in test [7] and 33.2 µM in test [8].
As to `COc1ccc2c(c1)OC(N)=C(C#N)C2c1ccc(F)cc1` (stereo not given), the GI50 in test [1] is 1.09 µM; in test [10] it was 4.03 µM; in test [2], 0.829 µM; in test [3] it was 1.64 µM; in [4], 2.49 µM; in test [5] it was 0.533 µM. The GI50 is 5.83 µM in test [6], 0.571 µM in [7] and 5.64 µM in test [8]. In addition, the TGI in [1] is 26 µM; in test [10], greater than 100 µM; in [2] it was 14.2 µM; in test [3], 6.58 µM; in test [4] it was 18.5 µM; in [5] it was greater than 100 µM. Moreover, the TGI in [6], in test [7] and in test [8] was greater than 100 µM throughout.
Regarding `CCOc1ccccc1NC(=O)C1=C(C)NC(C)=C(C(=O)Nc2ccccc2OCC)C1c1ccc(NC(C)=O)cc1`, the TGI in test [9], in [10], in [2], in [3], in [4] and in test [5] was greater than 100 µM throughout. Besides, the TGI in test [6] and in test [8] was greater than 100 µM in each case.
For `COc1cc([C@@H]2OC(=O)C3C2C(=O)O[C@H]3c2cc(OC)c(OC)c(OC)c2)cc(OC)c1OC` (stereo not given in full), the TGI in [1], in test [10], in [2], in test [3], in test [4] and in test [5] was greater than 100 µM in each case. Also, the TGI in test [6], in test [7] and in [8] was greater than 100 µM in each case.
For the compound `C=CCN=C1NC(=O)C(CC(=O)Nc2ccc(C)cc2)S1` (stereo not given), the TGI in test [9], in test [10], in [2], in test [3], in [4] and in [5] was greater than 100 µM in each case. For the same compound, the TGI in [6], in test [7] and in [8] was greater than 100 µM each time.
For `COc1cc(C(=O)CC2(O)C(=O)Nc3c(Cl)cc(Cl)cc32)ccc1O` (stereo not given), the TGI in [9], in test [10], in [2], in test [4], in test [5] and in [6] was greater than 100 µM each time. This compound returned a TGI in [8] greater than 100 µM.
Regarding `N#C[S-].[Au+].c1ccc(CN2[CH-]N(Cc3ccccc3)C(c3ccccc3)=C2c2ccccc2)cc1`, the GI50 in test [2] was 0.351 µM; in test [3], 0.629 µM; in [5] it was 0.421 µM; in test [6], 0.583 µM. The TGI in [2] came to 1.3 µM; in test [3], 2.13 µM; in [5], 2.99 µM; in test [6] it was 1.98 µM.
Regarding `O=C1/C(=C/c2ccc(Cl)cc2)COc2ccc(O)c(O)c21`, the GI50 in [9] is 1.07 µM; in test [10], 1.71 µM; in test [2], 0.404 µM; in [3], 0.44 µM; in test [4] it was 1.51 µM; in test [5], 0.838 µM. The GI50 in test [6] was 1.71 µM; in test [7], 1.27 µM; in test [8], 0.458 µM. Further, the TGI in test [9] was found to be 2.28 µM; in test [10] it was 4.09 µM; in test [2], 1.48 µM; in test [3], 1.87 µM; in test [4] it was 2.9 µM; in [5] it was 2.94 µM. Further, the TGI in [6] came out at 3.19 µM; in [7], 2.63 µM; in [8], 1.84 µM.
Consider `COC(=O)[C@@H](C)C[C@H](Cc1ccccc1)NC(=O)c1csc([C@@H](C[C@H](C(C)C)N(C)C(=O)C2(NC(=O)[C@H]3CCCCN3C)CC2)OC(C)=O)n1`, for which the GI50 in test [1] is 0.00343 µM and 0.00333 µM; in test [10], 0.0172 µM and 0.00333 µM; in test [2] it was 0.000567 µM and 0.00333 µM; in test [3], 0.00868 µM and < 0.00333 µM; in test [4], 0.00374 µM and 0.00333 µM; in test [5] it was 0.00317 µM and 0.00333 µM. For the same compound, the GI50 is 0.00352 µM and 0.00333 µM in test [7]; 1.3 µM in [8]. Besides, the TGI in [1], in test [10], in test [5], in [7] and in [8] was greater than 33.3 µM in each case.
Consider `Cc1cc(=O)oc2cc(OCc3nc4ccccc4c(=O)[nH]3)ccc12`, for which the TGI in test [9], in test [1], in test [10], in test [2], in test [3] and in test [4] was greater than 100 µM in each case. Further, the TGI in [5], in [6] and in test [7] was greater than 100 µM throughout.
In the case of `CCOC(=O)NC(=O)c1cn(CCN2CCN(C(=O)NCCCCCCNC(=O)N3CCN(CCn4cc(C(=O)NC(=O)OCC)c(=O)n(CCN(CC)CC)c4=O)CC3)CC2)c(=O)n(CCC(CC)CC)c1=O`, the TGI in test [1], in [10], in test [2], in [3], in test [4] and in [5] was greater than 100 µM each time. Further, the TGI in test [6], in [7] and in [8] was greater than 100 µM throughout.
In the case of `COc1cc([N+](=O)[O-])c(OC)cc1-c1nc2sc(Cl)cn2c1/C=N/NC(=N)N/N=C/c1c(-c2cc(OC)c([N+](=O)[O-])cc2OC)nc2sc(Cl)cn12`, the GI50 is 4.33 µM in test [9]; 1.76 µM in test [1]; 0.387 µM in test [3]; 1.66 µM in test [4]; 1.85 µM in [5]. Moreover, the TGI in [9] is 23.8 µM; in test [1], 3.15 µM; in test [3] it was 1.8 µM; in test [4] it was 3.12 µM; in test [5] it was 3.55 µM.
